{"source": "patent US20110166417A1", "about": "“METHOD AND DEVICE FOR REPAIR OF DEGENERATIVE CARTILAGE” (THE REGENTS OF UNIVERSITY OF MICHIGAN, priority 2008, published 2011)", "key": {"[1]": {"tested_on": "aggrecan and type II collagen mRNA expression in rat IVD cells", "experiment": "BMP inhibition experiment (noggin)", "type": "cell-based", "protocol": "BMP Inhibition Experiment. […] On day 7 and/or day 14, the cells were removed from the alginate beads and the gene expression of type II collagen and aggrecan was determined."}, "BMP-2": {"molecular_target": "T1, BMP-2 (Homo sapiens, UniProt P12643)", "T1 sequence (P12643 283-396)": "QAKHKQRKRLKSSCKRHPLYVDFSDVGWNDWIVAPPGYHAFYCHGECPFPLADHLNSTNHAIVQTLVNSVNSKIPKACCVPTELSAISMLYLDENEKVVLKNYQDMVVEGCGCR", "settings": "noggin 3 μg/ml; cited from earlier work"}, "[2]": {"tested_on": "BMP-2, aggrecan and type II collagen mRNA expression in rat IVD cells", "experiment": "Mevalonate experiment", "type": "cell-based", "settings": "mevalonate 200 μM"}, "[3]": {"tested_on": "BMP-2, aggrecan and type II collagen mRNA expression in rat IVD cells", "experiment": "Quantitative real-time PCR, 3-D culture in alginate beads", "type": "cell-based, Sprague-Dawley rats", "text": "Monolayer and Three-dimensional cell culture: Cells were trypsinized and subcultured in 12-well plate or embedded and cultured in alginate beads supplemented with complete DMEM/F12 medium after primary culture. […] Quantitative real-time PCR: […] IVD Cell Isolation. Lumbar IVDs from Sprague-Dawley rats (Harlan Sprague-Dawley, Indianapolis, Ind.) aged 6-8 weeks were harvested immediately after euthanasia. NP and inner AF, including the transition zone (the area between the AF and the NP) were carefully removed from the disc and placed in DMEM/F12 medium (Gibco, Grand Island, N.Y.). […] Louis, Mo.) and 0.004% deoxyribonuclease II (Sigma-Aldrich) for 90 min at 37° C. under gentle agitation. The tissues were washed 3 times with Dulbecco's phosphate buffered saline (D-PBS) followed by digestion under the same conditions, except that the pronase was replaced with 0.04% collagenase type II (Sigma-Aldrich) for 6 hrs. […] Culture medium was changed on day 6 after cell seeding, and twice per week thereafter. Cell Culture in Alginate Beads. When the primary cell culture became confluent, the cells were trypsinized and washed twice with D-PBS and re-suspended in sterile 0.15 M NaCl containing 1.2% low-viscosity alginate (Sigma-Aldrich) at a density of 1×10^6 cells/ml. […] After 15 min, the newly formed alginate beads (containing about 12,000 cells/bead) were washed 3 times with sterile 0.15 M NaCl solution followed by 2 washes with DMEM/F-12 medium. […] Three days later, the medium was changed and treated with different doses of simvastatin (LKT Laboratories, St. […] To remove cells from the alginate bead, wells were rinsed 3 times with 0.15 M NaCl with gentle pipetting into the well. The rinse solution was incubated for 1 min and was aspirated off. Dissolving buffer (55 mmol/L sodium citrate and 0.15 M NaCl, pH 6.0) 3 times the volume of alginate was added to the wells, and plates were incubated at 37° C. for 15 min with gentle shaking. Cells were pelleted by centrifugation and the dissolved solution was collected for sGAG content measurement. The cell pellet was washed with D-PBS once and collected for DNA content determination or RNA extraction. All experiments were performed in triplicate. RNA Isolation and Reverse Transcription. Total RNA was extracted using the Trizol (Invitrogen, Carlsbad, Calif.) reagent followed by RNeasy Mini Kit (Qiagen, Inc., Valencia, Calif.) and DNase digestion with the RNase-free DNase set (Qiagen). Concentration of total RNA was determined at 260 nm with a spectrophotometer. Reverse transcription was carried out at 42° C. for 50 min in 20-μL volume with 100 ng of total RNA using the SuperScript First-Strand Synthesis System (Invitrogen, Carlsbad, Calif.). Quantitative Real-Time Polymerase Chain Reaction. Real-time polymerase chain reaction (PCR) was used to quantify gene expression levels of type II collagen, aggrecan, and BMP-2. GAPDH was used as an internal control and the TAQMAN® Real-Time PCR Kit (Applied Biosystems, Foster City, Calif.) was implemented. Reaction volume of 30 μl included 1 μL of cDNA, 1.5 ul of 20× of each primer/probe, and 12.5 μL of TAQMAN® PCR Master Mix (2×) (Applied Biosystems). Real-time PCR was performed using the following 3-step protocol: Step 1, 50° C. for 2 min; Step 2, 95° C. for 10 min; and Step 3, (95° C. for 15 sec, 60° C. for 1 min) times 45 cycles using the Gene Amp 7700 Sequence Detection System (Applied Biosystems). A positive standard curve for each primer was obtained by real-time PCR with serially-diluted cDNA sample mixture. The reaction efficacy of each gene was determined using the standard curves. The quantity of gene expression of aggrecan, type II collagen, and BMP-2 were calculated with standard samples and normalized with GAPDH internal control."}, "IVD cells": {"tested_on": "IVD cells", "experiment": "IVD cell proliferation / range of cell tolerance", "type": "cell-based, Sprague-Dawley rats", "settings": "rat IVD cells", "text": "(§1) Disc cell isolation: Nucleus pulposus and inner anulus fibrosus cells of lumbar intervertebral discs from Sprague-Dawley rats were harvested by the enzymatic digestion and grown in monolayer until reached confluence.\n(§2) Monolayer and Three-dimensional cell culture: Cells were trypsinized and subcultured in 12-well plate or embedded and cultured in alginate beads supplemented with complete DMEM/F12 medium after primary culture."}, "[4]": {"tested_on": "BMP-2, aggrecan and collagen II mRNA expression in IVD cells", "experiment": "Quantitative real-time PCR, monolayer culture", "type": "cell-based, Sprague-Dawley rats", "settings": "3 μM, maximal at day 3", "text": "as §1, §2\nQuantitative real-time PCR: Total RNAs were extracted and cDNAs were synthesized using Invitrogen […]™ first-strand synthesis kit."}, "rat IVD cells": {"tested_on": "rat IVD cells", "experiment": "MTT assay, cell viability", "type": "cell-based", "protocol": "MTT assay. Cell proliferation was determined by a modified MTT assay (Sigma-Aldrich) (47, 48). Briefly, at each time point, the medium was aspirated and washed with PBS once. MTT solution (0.5 mg/ml) in PBS was added and incubated at 37° C. for 1.5 hr. The cells were removed from the alginate bead and pelleted by centrifugation. The cell pellet was then washed with D-PBS once and 10% Triton X-100, 0.1 N HCl in 2-propanol solution was added to each well to dissolve the formazan at 4° C. for 3 hrs. The dissolved solution was centrifuged and the absorbance was determined immediately using a spectrophotometer at 540 nm wavelength filter. All experiments were performed in triplicate."}, "[5]": {"settings": "noggin 3 μg/ml, simvastatin 3 μM, day 14"}}, "data": [{"compound": "Noggin", "values": [{"measurement": "aggrecan and type II collagen mRNA expression, noggin alone", "setting": "[1]; noggin 500 ng/ml, no simvastatin", "result": "had no interference"}, {"measurement": "block of aggrecan and type II collagen gene expression upregulated by simvastatin", "setting": "[1]; noggin 500 ng/ml, simvastatin 3 μM, day 7", "result": "significantly blocked"}, {"measurement": "block of aggrecan and type II collagen gene expression upregulated by simvastatin", "setting": "[1]; noggin 500 ng/ml, simvastatin 3 μM, day 14", "result": "did not endure"}, {"measurement": "aggrecan and type II collagen gene expression compared with Veh+Veh, noggin alone", "setting": "[1]; noggin 3 μg/ml", "result": "inhibited both gene expressions significantly"}, {"measurement": "effect on aggrecan gene expression upregulated by simvastatin", "setting": "[1]; [5]", "result": "failed to block"}, {"measurement": "effect on type II collagen gene expression upregulated by simvastatin", "setting": "[1]; [5]", "result": "attenuated"}, {"measurement": "effect on type II collagen gene expression upregulated by simvastatin", "setting": "[1]; noggin 3 μg/ml, simvastatin 3 μM, day 14, listed as noggin", "result": "significantly attenuated"}, {"measurement": "block of BMP-2 activity", "setting": "BMP-2", "result": "over 90%"}]}, {"compound": "CC(O)(CCO)CC(=O)O", "note": "(stereo not drawn) [Mevalonate, mevalonate]", "values": [{"measurement": "aggrecan, type II collagen and BMP-2 gene expression, mevalonate alone", "setting": "[2]; alginate beads", "result": "had no effect"}, {"measurement": "effect on gene expression (BMP-2, aggrecan, type II collagen) upregulated by simvastatin", "setting": "[2]; simvastatin 3 μM, days 7 and 14", "result": "completely reversed"}]}, {"compound": "CCC(C)(C)C(=O)O[C@H]1C[C@@H](C)C=C2C=C[C@H](C)[C@H](CC[C@@H]3C[C@@H](O)CC(=O)O3)[C@H]21", "note": "[simvastatin]", "values": [{"measurement": "increase of collagen type II mRNA expression", "setting": "[3]; 3-D culture (alginate beads), 3 μM, day 21", "result": 16, "unit": "fold"}, {"measurement": "increase of aggrecan mRNA expression", "setting": "[3]; 3-D culture, 3 μM, day 21", "result": 11, "unit": "fold"}, {"measurement": "increase of BMP-2 mRNA expression", "setting": "[3]; 3-D culture, 3 μM, peak level at day 7", "result": 5, "unit": "fold"}, {"measurement": "day of maximal type II collagen mRNA expression", "setting": "[3]; alginate beads", "result": 21, "unit": "days"}, {"measurement": "day of maximum BMP-2 mRNA expression", "setting": "[3]; alginate beads, 3 μM", "result": 2, "unit": "days"}, {"measurement": "day of maximum aggrecan mRNA expression", "setting": "[3]; alginate beads, 3 μM", "result": 21, "unit": "days"}, {"measurement": "dose over which IVD cell proliferation was inhibited", "setting": "IVD cells", "result": "over 3 μM"}, {"measurement": "increase of BMP-2 mRNA expression", "setting": "[4]", "result": 2, "unit": "fold"}, {"measurement": "IVD cell viability", "setting": "rat IVD cells; 0.3 μM, time points tested", "result": "had no effect"}, {"measurement": "IVD cell viability", "setting": "rat IVD cells; 1 μM, from day 3 and thereafter", "result": "significant decrease"}, {"measurement": "IVD cell viability", "setting": "rat IVD cells; 3 μM, all time points tested", "result": "decreased"}]}]}
